According to US20150368248A1, “2-SUBSTITUTED-6-BIARYLMETHYLAMINO-9-CYCLOPENTYL-9H-PURINE DERIVATIVES, USE THEREOF AS MEDICAMENTS, AND PHARMACEUTICAL COMPOSITIONS” (UNIVERZITA PALACKEHO V OLOMOUCI, priority 2013, published 2015):
Where two headings read alike, the source gives them in different places.

How the values were obtained:
[1] = test system: Hep3B; assay: MTT cytotoxicity assay (Example 30); assay type: cell-based, human; conditions: Homo sapiens, Hep3B, 72 h; MTT, three days after drug addition; read-out: Inhibitory concentration IC50, Hep3B
[2] = test system: HCC-1.1 (3sp); assay: MTT cytotoxicity assay (Example 30); assay type: cell-based; conditions: Homo sapiens, 72 h; MTT, three days after drug addition; read-out: Inhibitory concentration IC50, 3sp
[3] = test system: HCC-1.2 (3p); assay: MTT cytotoxicity assay (Example 30); assay type: cell-based; conditions: Homo sapiens, HCC-1.2, 72 h; MTT, three days after drug addition; read-out: Inhibitory concentration IC50, 3p
[4] = test system: HUH-7; assay: MTT cytotoxicity assay (Example 30); assay type: cell-based; conditions: Homo sapiens, Huh-7, 72 h; MTT, three days after drug addition; read-out: Inhibitory concentration IC50, HUH-7
[5] = test system: PLC/PRF/5; assay: MTT cytotoxicity assay (Example 30); assay type: cell-based; conditions: Homo sapiens, PLC-PRF-5, 72 h; MTT, three days after drug addition; read-out: Inhibitory concentration IC50, PLC/PRF/5
[6] = biological target: T1, CDK5/p35 (Homo sapiens, UniProt Q00535); assay: Kinase inhibition assay, recombinant kinase, [γ-33P]ATP; assay type: biochemical; conditions: read-out: Residual kinase activity, CDK5; for remaining activity at 0.1 µM: 100 nM; for remaining activity at 1 µM: 1000 nM
T1 construct: purchased ProQinase GmbH (Freiburg, Germany)
T1 sequence (Q00535 whole entry): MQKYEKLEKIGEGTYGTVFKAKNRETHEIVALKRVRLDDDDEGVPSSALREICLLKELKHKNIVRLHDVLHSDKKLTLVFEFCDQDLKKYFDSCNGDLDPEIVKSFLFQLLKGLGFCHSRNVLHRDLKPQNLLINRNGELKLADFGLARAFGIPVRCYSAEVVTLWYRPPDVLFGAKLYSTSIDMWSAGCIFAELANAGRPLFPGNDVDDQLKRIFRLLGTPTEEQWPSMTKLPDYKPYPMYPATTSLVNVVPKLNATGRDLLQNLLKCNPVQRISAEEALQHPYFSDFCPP
T1 sequence (Q15078 whole entry partner): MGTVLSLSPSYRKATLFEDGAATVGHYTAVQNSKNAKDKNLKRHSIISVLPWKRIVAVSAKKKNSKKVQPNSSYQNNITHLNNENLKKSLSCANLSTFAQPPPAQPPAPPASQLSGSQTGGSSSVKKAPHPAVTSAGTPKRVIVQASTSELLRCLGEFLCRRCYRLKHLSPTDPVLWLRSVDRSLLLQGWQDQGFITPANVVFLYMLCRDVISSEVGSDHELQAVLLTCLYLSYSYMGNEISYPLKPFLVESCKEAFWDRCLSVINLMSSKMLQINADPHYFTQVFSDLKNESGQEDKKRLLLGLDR
Experimental: (§1) CDK2/Cyclin E kinase was produced in Sf9 insect cells via baculoviral infection and purified on a NiNTA column (Qiagen). CDK5/p35, CDK7Cyclin H/MAT1 and CDK9/Cyclin T1 was purchased from ProQinase GmbH. The kinase reactions were assayed with 1 mg/mL histone H1 (for CDK2 and CDK5) or (YSPTSPS)2KK peptide (for CDK7 and CDK9) in the presence of 15/0.15/1.5/1.5 μM ATP (for CDK2/CDK5/CDK7CDK9), 0.05 μCi [γ-^33P]ATP and of the test compound in a final volume of 10 μL, all in a reaction buffer (60 mM HEPES-NaOH, pH 7.5, 3 mM MgCl2, 3 mM MnCl2, 3 μM Na-orthovanadate, 1.2 mM DTT, 2.5 μg/50 μl PEG20,000). The reactions were stopped by adding 5 μL of 3% aq H3PO4. Aliquots were spotted onto P-81 phosphocellulose (Whatman), washed 3× with 0.5% aq H3PO4 and finally air-dried.
(§2) CDK1/cyclin B and CDK2/cyclin E kinases were produced in Sf9 insect cells via baculoviral infection, while CDK5/p35, CDK7/cyclin H/MAT1, and CDK9/cyclin T1 were purchased from ProQinase (Freiburg, Germany) and assayed as described previously (35). The kinase reactions were assayed with 1 mg/ml histone H1 (for CDK2 and CDK5) or (YSPTSPS)2KK peptide (for CDK7 and CDK9) in the presence of 15/0.15/1.5/1.5 […] ATP (for CDK2/CDK5/CDK7CDK9), […] [γ-^33P]ATP and of the test compound in a final volume of […]. The reaction buffer contained 60 mM HEPES-NaOH, pH 7.5, 3 mM MgCl2, 3 mM MnCl2, 3 mM Na-orthovanadate, 1.2 mM DTT, 2.5 mg/50 ml PEG20.000. The reactions were stopped by adding […] of 3% H3PO4. Aliquots were spotted onto P-81 phosphocellulose (Whatman, GE Healthcare Biosciences, Pittsburgh, USA), washed 3 times with 0.5% H3PO4 and finally air-dried. Kinase inhibition was quantified using a FLA-7000 digital image analyzer (Fujifilm, Tokyo, Japan).

[7] = biological target: T2, CDK7/cyclin H/MAT1 (Homo sapiens, UniProt P50613); assay: as above; assay type: biochemical; conditions: read-out: Residual kinase activity, CDK7; for remaining activity at 0.1 µM: 100 nM; for remaining activity at 1 µM: 1000 nM
T2 construct: purchased ProQinase GmbH (Freiburg, Germany)
T2 sequence (P50613 whole entry): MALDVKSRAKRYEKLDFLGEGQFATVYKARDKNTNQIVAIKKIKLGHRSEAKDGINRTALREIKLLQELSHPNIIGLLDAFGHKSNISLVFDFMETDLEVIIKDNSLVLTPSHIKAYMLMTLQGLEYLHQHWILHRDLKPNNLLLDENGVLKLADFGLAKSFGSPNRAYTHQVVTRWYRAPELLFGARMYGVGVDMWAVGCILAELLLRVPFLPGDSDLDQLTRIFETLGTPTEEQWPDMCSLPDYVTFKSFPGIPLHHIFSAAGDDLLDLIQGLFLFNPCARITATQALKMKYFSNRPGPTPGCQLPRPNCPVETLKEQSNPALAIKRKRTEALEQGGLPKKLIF
T2 sequence (P51946 whole entry partner): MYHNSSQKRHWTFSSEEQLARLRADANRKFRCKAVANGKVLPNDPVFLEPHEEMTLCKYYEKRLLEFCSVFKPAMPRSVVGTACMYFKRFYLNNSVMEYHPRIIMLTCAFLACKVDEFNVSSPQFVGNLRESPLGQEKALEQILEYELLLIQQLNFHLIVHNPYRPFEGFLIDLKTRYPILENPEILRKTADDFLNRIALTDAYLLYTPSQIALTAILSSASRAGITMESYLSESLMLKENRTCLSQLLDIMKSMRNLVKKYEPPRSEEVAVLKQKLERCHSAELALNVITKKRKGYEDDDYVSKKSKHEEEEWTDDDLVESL
T2 sequence (P51948 whole entry partner): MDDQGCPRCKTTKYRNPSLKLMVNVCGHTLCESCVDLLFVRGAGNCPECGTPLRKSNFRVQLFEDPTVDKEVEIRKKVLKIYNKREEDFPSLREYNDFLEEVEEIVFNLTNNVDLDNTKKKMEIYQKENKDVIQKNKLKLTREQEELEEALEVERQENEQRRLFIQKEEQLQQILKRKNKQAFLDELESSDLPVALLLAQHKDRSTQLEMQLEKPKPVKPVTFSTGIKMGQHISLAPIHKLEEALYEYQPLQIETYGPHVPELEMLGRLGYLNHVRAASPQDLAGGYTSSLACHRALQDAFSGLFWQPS
Experimental: as §1, §2

[8] = biological target: T3, CDK9/Cyclin T1 (Homo sapiens, UniProt P50750); assay: as above; assay type: biochemical; conditions: read-out: Residual kinase activity, CDK9; for remaining activity at 0.1 µM: 100 nM; for remaining activity at 1 µM: 1000 nM
T3 construct: purchased ProQinase GmbH (Freiburg, Germany)
T3 sequence (P50750 whole entry): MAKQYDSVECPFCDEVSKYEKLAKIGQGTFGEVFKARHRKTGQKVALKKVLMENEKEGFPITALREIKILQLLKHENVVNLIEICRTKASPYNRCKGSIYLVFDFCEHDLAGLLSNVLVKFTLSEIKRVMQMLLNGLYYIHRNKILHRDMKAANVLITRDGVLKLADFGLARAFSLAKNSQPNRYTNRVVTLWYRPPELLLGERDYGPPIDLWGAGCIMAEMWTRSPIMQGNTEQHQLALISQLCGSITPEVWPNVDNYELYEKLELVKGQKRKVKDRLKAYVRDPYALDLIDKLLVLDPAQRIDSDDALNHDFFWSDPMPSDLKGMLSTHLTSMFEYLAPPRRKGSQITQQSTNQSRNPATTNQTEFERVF
T3 sequence (O60563 whole entry partner): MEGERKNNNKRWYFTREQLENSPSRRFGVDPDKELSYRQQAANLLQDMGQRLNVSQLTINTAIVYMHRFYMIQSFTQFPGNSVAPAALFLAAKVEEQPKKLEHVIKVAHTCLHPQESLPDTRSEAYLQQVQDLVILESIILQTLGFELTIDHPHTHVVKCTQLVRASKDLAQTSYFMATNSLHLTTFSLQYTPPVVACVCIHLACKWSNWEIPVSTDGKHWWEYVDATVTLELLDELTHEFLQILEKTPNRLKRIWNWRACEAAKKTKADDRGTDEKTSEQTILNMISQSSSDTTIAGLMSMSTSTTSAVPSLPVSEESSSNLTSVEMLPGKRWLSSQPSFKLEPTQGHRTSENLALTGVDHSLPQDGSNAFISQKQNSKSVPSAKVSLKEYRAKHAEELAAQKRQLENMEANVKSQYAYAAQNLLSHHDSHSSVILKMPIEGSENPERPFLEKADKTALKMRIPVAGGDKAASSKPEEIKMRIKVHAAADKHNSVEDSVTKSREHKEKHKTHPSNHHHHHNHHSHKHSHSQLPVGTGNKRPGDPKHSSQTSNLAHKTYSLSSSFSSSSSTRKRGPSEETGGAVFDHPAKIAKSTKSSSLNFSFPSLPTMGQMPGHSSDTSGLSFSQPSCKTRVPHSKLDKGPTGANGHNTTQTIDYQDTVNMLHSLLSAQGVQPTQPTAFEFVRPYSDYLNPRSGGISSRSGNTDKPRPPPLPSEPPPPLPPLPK
Experimental: as §1, §2

[9] = test system: human umbilical vein endothelial cells (HUVEC); assay: HUVEC proliferation, Calcein AM; assay type: cell-based; conditions: Homo sapiens, HUVEC, read-out: Inhibitory concentration for HUVEC cells - IC50
Outline: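 Confluent HUVECs seeded in 96-well plates and exposed to compound for 24 or 72 h. Proliferation read by Calcein AM fluorescence.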

[10] = test system: human umbilical vein endothelial cells (HUVECs); assay: Migration scratch assay; assay type: cell-based; parameters: key to Wound area: ++: open; +: partly open; 0: closed; conditions: for Wound area: 24 h; for inhibition of migration (in words): 24 h treatment
Experimental: Migration assay was performed as described previously (Krystof et al., 2011, Eur J Med Chem.; 46(9):4289-94). Briefly, confluent HUVECs were scratched and immediately treated for 24 h with various doses of compounds. After incubation each well was photographed using a DP Controller system (Olympus) connected to a Olympus BX50 microscope. Migration was expressed as the proportion of pixels of the wound area in the image that were not covered by cells using “in house” software.

Row | SMILES | remaining activity at 0.1 µM [6] [%] | remaining activity at 1 µM [6] [%] | remaining activity at 0.1 µM [7] [%] | remaining activity at 1 µM [7] [%] | remaining activity at 0.1 µM [8] [%] | remaining activity at 1 µM [8] [%] | IC50 [1] [nM] | IC50 [2] [nM] | IC50 [3] [nM] | IC50 [4] [nM] | IC50 [5] [nM] | IC50 ([9]; 24 h) [nM] | IC50 ([9]; 72 h) [nM] | Wound area ([10]; 100 nM) | Wound area ([10]; 1000 nM) | inhibition of migration (in words) ([10]; 100 nM)
1 | NC1CCC(Nc2nc(NCc3ccc(-c4cccc(F)c4)nc3)c3ncn(C4CCCC4)c3n2)CC1 (centres unmarked) [BP19, N^2-(4-amino-cyclohexyl)-9-cyclopentyl-N^6-[6-(3-fluoro-phenyl)-pyridin-3-ylmethyl]-9H-purine-2,6-diamine] | 37.7 | 25.6 | 55 | 25 | 26.6 | 0.83 | 85 | 410 | 191 | 281 | 9 | 21800 | 370 | + | ++ | –
2 | NC1CCC(Nc2nc(NCc3ccc(-c4ccccc4O)nc3)c3ncn(C4CCCC4)c3n2)CC1 (centres unmarked) [BP20, N^2-(4-amino-cyclohexyl)-9-cyclopentyl-N^6-[6-(2-hydroxy-phenyl)-pyridin-3-ylmethyl]-9H-purine-2,6-diamine] | 47.6 | 19.4 | 48 | 17.3 | 21.1 | 0.59 | 32 | 197 | 132 | 182 | 7 | 29200 | 570 | ++ | ++ | Significant inhibition of migration

More lines, main results first:

Row | remaining activity at 0.1 µM [6] [%] | remaining activity at 1 µM [6] [%] | remaining activity at 0.1 µM [7] [%] | remaining activity at 1 µM [7] [%] | remaining activity at 0.1 µM [8] [%] | remaining activity at 1 µM [8] [%] | SMILES | IC50 [1] [nM] | IC50 [2] [nM] | IC50 [3] [nM] | IC50 [4] [nM] | IC50 [5] [nM] | IC50 ([9]; 24 h) [nM] | IC50 ([9]; 72 h) [nM] | Wound area ([10]; 100 nM) | Wound area ([10]; 1000 nM) | inhibition of migration (in words) ([10]; 100 nM)
3 | 26 | 4.31 | 47.7 | 16.5 | 19.6 | 1.78 | NC1CCC(Nc2nc(NCc3ccc(-c4cccs4)nc3)c3ncn(C4CCCC4)c3n2)CC1 (centres unmarked) [BP30, N^2-(4-amino-cyclohexyl)-9-cyclopentyl-N^6-(6-thiophen-2-yl-pyridin-3-ylmethyl)-9H-purine-2,6-diamine] | 77 | 476 | 205 | 184 | 15 | 20400 | 80 | ++ | ++ | Significant inhibition of migration
4 | 65 | 8.7 | 64.1 | 33.5 | 32.8 | 2.39 | NC1CCC(Nc2nc(NCc3ccc(-c4ccsc4)nc3)c3ncn(C4CCCC4)c3n2)CC1 (centres unmarked) [BP35, N^2-(4-amino-cyclohexyl)-9-cyclopentyl-N^6-(6-thiophen-3-yl-pyridin-3-ylmethyl)-9H-purine-2,6-diamine] | 207 | 328 | 218 | 257 | 37 | > 50000 | 180 | 0 | ++ | –
5 | 31.9 | 2.95 | 49.1 | 17.3 | 15.4 | 1.68 | NC1CCC(Nc2nc(NCc3ccc(-c4ccoc4)nc3)c3ncn(C4CCCC4)c3n2)CC1 (centres unmarked) [BP36, N^2-(4-amino-cyclohexyl)-9-cyclopentyl-N^6-(6-furan-3-yl-pyridin-3-ylmethyl)-9H-purine-2,6-diamine] | 130 | 424 | 258 | 332 | 18 | 20800 | 190 | + | ++ | –
